Test results: ChEMBL document CHEMBL1145868, “Small, low nanomolar, noncovalent thrombin inhibitors lacking a group to fill the 'distal binding pocket'” (Bioorg Med Chem Lett, 2003)

Columns and labels:
Trypsin = Trypsin (Homo sapiens, UniProt P07477+P07478+P35030); experiment: Inhibition of trypsin in human plasma; format: cell-free
Prothrombin = Prothrombin (Homo sapiens, UniProt P00734); experiment: Inhibition of thrombin in human plasma; format: cell-free
Homo sapiens [1] = organism: Homo sapiens; experiment: Concentration required to double the human activated partial thromboplastin time in human plasma; format: functional
Homo sapiens [2] = organism: Homo sapiens; experiment: Protein binding affinity in human plasma, expressed as percent unbound (free); format: functional

Compound Cc1nc(N)ccc1CNC(=O)Cn1c(C)cnc(N)c1=O has a Ki (Trypsin) of 23000 nM and a Ki (Prothrombin) of 900 nM.

In the case of Cc1ccc(NS(=O)(=O)Cc2ccccc2)c(=O)n1CC(=O)NCc1cc(Cl)ccc1Cl, the Ki (Trypsin) is reported as 100000 nM, the Concentration (Homo sapiens [1]) is reported as 2.7 µM and the Ki (Prothrombin) is reported as 24 nM.

CCNC(=O)COc1ccc(Cl)cc1CNC(=O)Cn1c(C)ccc(NS(=O)(=O)Cc2ccccc2)c1=O showed a Ki (Trypsin) of 2000 nM, a Concentration (Homo sapiens [1]) of 0.79 µM and a Ki (Prothrombin) of 0.04 nM.

In the case of CCNC(=O)COc1ccc(Cl)cc1CNC(=O)[C@@H]1CCCN1C(=O)[C@H](N)C1CCCCC1, the Ki (Trypsin) is reported as 23000 nM, the Concentration (Homo sapiens [1]) is reported as 0.41 µM and the Unbound (Homo sapiens [2]) is reported as 15%.

Cc1cc(C(F)(F)F)c(N)c(=O)n1CC(=O)NCc1cc(Cl)ccc1OCC(=O)N(C)C showed a Ki (Trypsin) of over 100000 nM.

CNC(=O)COc1ccc(Cl)cc1CNC(=O)Cn1c(C)cc(C(F)(F)F)c(N)c1=O was tested, and the Ki (Trypsin) was 7100 nM, the Concentration (Homo sapiens [1]) was 2.5 µM and the Ki (Prothrombin) was 15 nM.

For N[C@@H](C(=O)N1CCC[C@H]1C(=O)NCc1cc(Cl)ccc1Cl)C1CCCCC1, the Ki (Trypsin) was 29000 nM, the Concentration (Homo sapiens [1]) was 0.95 µM and the Unbound (Homo sapiens [2]) was 4%.

CCNC(=O)COc1ccc(Cl)cc1CNC(=O)Cn1c(C)cnc(NCCc2ccccc2)c1=O showed a Ki (Trypsin) of 1000 nM, a Concentration (Homo sapiens [1]) of 1.2 µM and an Unbound (Homo sapiens [2]) of 1%. For the same compound, the Ki (Prothrombin) was 0.07 nM.

In the case of Cc1ccc(NS(=O)(=O)Cc2ccccc2)c(=O)n1CC(=O)NCc1cccc(Cl)c1, the Ki (Trypsin) is reported as 20000 nM, the Concentration (Homo sapiens [1]) is reported as 2.8 µM and the Ki (Prothrombin) is reported as 7 nM.

For Cc1nc(N)ccc1CNC(=O)Cn1c(C)cnc(NCCc2ccccc2)c1=O [L-375378], the Ki (Trypsin) was 1800 nM, the Concentration (Homo sapiens [1]) was 0.41 µM and the Unbound (Homo sapiens [2]) was 6%.

Work on Cc1cc(C(F)(F)F)c(N)c(=O)n1CC(=O)NCc1cc(Cl)ccc1OCC(=O)NCCCN(C)C yielded a Ki (Trypsin) of 11000 nM, a Concentration (Homo sapiens [1]) of 0.7 µM and an Unbound (Homo sapiens [2]) of 18%. The Ki (Prothrombin) was 7.4 nM.

Work on CCNC(=O)COc1ccc(Cl)cc1CNC(=O)Cn1c(C)cc(C(F)(F)F)c(N)c1=O yielded a Ki (Trypsin) of 10000 nM, a Concentration (Homo sapiens [1]) of 2.1 µM and a Ki (Prothrombin) of 8.5 nM.

With CCNC(=O)COc1ccc(Cl)cc1CNC(=O)Cn1c(C)cnc(N)c1=O the Ki (Trypsin) was 7200 nM, the Concentration (Homo sapiens [1]) was 1.6 µM and the Unbound (Homo sapiens [2]) was 20%. For the same compound, the Ki (Prothrombin) was 12 nM.

Work on Cc1nc(N)ccc1CNC(=O)Cn1c(C)cc(C(F)(F)F)c(N)c1=O yielded a Ki (Trypsin) of 20000 nM and a Ki (Prothrombin) of 340 nM.

In the case of Cc1cc(C(F)(F)F)c(N)c(=O)n1CC(=O)NCc1cc(Cl)ccc1OCC(=O)NCCN(C)C, the Ki (Trypsin) is reported as 14000 nM, the Concentration (Homo sapiens [1]) is reported as 1.3 µM and the Ki (Prothrombin) is reported as 18 nM.
